Laboratory results published in patent US7037665B1, “Compositions comprising SNORF36 receptor compounds” (H. Lundbeck A/S, priority 1999, dated 2006).
“Also recorded” adds a separate entry of the source.

How the values were obtained:
SNORF36a [1] = molecular target: T1, SNORF36a (Homo sapiens, UniProt Q9UHM6); test: Intracellular Ca2+ mobilization (FLIPR) in human SNORF36a-transfected Cos-7 cells; format: cell-based; conditions: for EC50: photobleached SNORF36a-transfected Cos-7 cells, FLIPR, n=3
T1 sequence (Q9UHM6 1-478): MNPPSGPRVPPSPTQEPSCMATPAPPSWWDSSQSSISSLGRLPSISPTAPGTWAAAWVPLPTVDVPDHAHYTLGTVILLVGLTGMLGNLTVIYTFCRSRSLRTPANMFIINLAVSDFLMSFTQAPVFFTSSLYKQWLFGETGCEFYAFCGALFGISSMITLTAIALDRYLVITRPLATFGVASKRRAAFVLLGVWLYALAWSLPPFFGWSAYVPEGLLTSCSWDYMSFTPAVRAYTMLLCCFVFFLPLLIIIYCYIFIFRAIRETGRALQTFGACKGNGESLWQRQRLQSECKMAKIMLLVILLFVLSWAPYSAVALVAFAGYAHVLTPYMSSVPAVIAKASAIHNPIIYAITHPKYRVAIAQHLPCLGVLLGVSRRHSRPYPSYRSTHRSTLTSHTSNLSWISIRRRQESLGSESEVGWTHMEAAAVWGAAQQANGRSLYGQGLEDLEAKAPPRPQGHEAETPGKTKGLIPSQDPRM
Method: The intracellular free calcium (Ca^2+) concentration may be measured by the Fluorescence Imager Plate Reader (FLIPR™).
Cells transfected with appropriate DNA as described earlier were plated into clear, flat-bottom, black-wall 96-well plates (Costar) at a density of 80,000-150,000 cells per well and allowed to incubate for 24 hr at 5% CO2, 37° C. Whenever necessary, the cells were placed in a waterbath maintained at 37° C. and were exposed to a lamp light (50W) placed at a distance of approximately 30 cm, 90 to 120 min before the imaging. The growth medium was aspirated and 100 μl of loading medium containing fluo-3 dye was added to each well 60 min before the imaging. The loading medium contained: Hank's BSS (without phenol red) (Gibco), 20 mM HEPES (Sigma), 0.1 or 1% BSA (Sigma), dye/pluronic acid mixture (e.g. 1 mM Flou-3, AM (Molecular Probes) and 10% pluronic acid (Molecular Probes) mixed immediately before use), and 2.5 mM probenecid (Sigma) (prepared fresh). The cells were allowed to incubate for about 1 hour at 5% CO2, 37° C.
Before or during the incubation of cells with the dye-loading medium, the test compound plate was prepared. Since retinoids are chemically unstable and can undergo rapid photoisomerization (Hu et al., 1994), care was taken to weigh, dissolve and prepare appropriate concentrations of the test compound under photographic darkroom lights. The test compounds were diluted in wash buffer (Hank's BSS (without phenol red), 20 mM HEPES, 2.5 mM probenecid) to a 4× final concentration and aliquoted into a clear v-bottom plate (Nunc). The test compounds were protected from light till their addition to cells. Following the incubation with the dye-loading medium, the cells were washed to remove the excess dye. A Denley plate washer was used to gently wash the cells 4 times and leave a 100 μl final volume of wash buffer in each well. The cell plate was placed in the center tray and the test compound plate was placed in the right tray of the FLIPR. The FLIPR software was setup for the experiment, the experiment was run and the data were collected. For the agonist experiment, the sampling rate in the FLIPR was every 1 sec for the first minute and every 2 sec for the next two minutes. In this paradigm, the test compound was added after recording base line for the first 10 sec. For the antagonist experiment, the sampling rate in the FLIPR was every 1 sec for the first minute, every 6 sec for the next 5 minutes, every 1 sec for the next one minute followed by every 2 sec next two minutes. To evaluate the antagonist activity, the test compound was added to the cells 10 sec after commencing the recording and the agonist was added at 310 sec of the recording. Baseline subtraction and negative control corrections were performed on the traces. The collected data were then analyzed using the Excel spreadsheet program.

[2] = system: Control oocytes, not injected with SNORF36a mRNA; test: Light-elicited currents in control Xenopus oocytes not injected with SNORF36a mRNA; format: cell-based, Xenopus laevis; conditions: control uninjected oocytes pre-incubated with ligand (100 nM, 24 h), n=10 oocytes
Method: (§1) In the present invention, oocytes were harvested from Xenopus laevis and injected with mRNA transcripts as previously described (Quick and Lester, 1994; Smith et al., 1997). SNORF36a RNA transcripts were synthesized using the T7 polymerase (“Message Machine”, Ambion) from the plasmid BO109 linearized with NotI. Oocytes were injected with 5-25 ng synthetic RNA and incubated for 3-8 days at 17° C. Dual electrode voltage clamp (Axon Instruments Inc.) was performed using 3 M KCl-filled glass microelectrodes having resistances of 1-2 MOhm. Unless otherwise specified, oocytes were voltage clamped at a holding potential of −80 mV. During recordings, oocytes were bathed in continuously flowing (1-3 ml/min) medium containing 96 mM NaCl, 2 mM KCl, 1.8 mM CaCl2, 1 mM MgCl2, 5 mM HEPES, pH 7.5 (ND96), and the appropriate ligand.
Experiments were carried out under minimal light conditions which required compound weighing, final dilutions and oocyte recordings to be performed under photographic darkroom lights (“Brightlab Junior” safelight). In some cases, the ligands were briefly exposed to room light (5-10 min.) during the weighing procedure. For eliciting physiological responses from oocytes, the light stimulus was a 60 W tungsten lamp set at a distance of 30 cm from the oocyte. […] All values are expressed as mean ± standard error of the mean.

SNORF36a [3] = molecular target: T1, SNORF36a; test: Light-elicited currents in voltage-clamped Xenopus oocytes expressing SNORF36a; format: cell-based; set-up: expressed in transfected cells; host or cells: Xenopus laevis oocytes injected with synthetic mRNA transcribed from plasmid BO109; conditions: pre-incubated in the dark 24-48 h at 100 nM in ND96
Method: as §1
Experiments were carried out under minimal light conditions which required compound weighing, final dilutions and oocyte recordings to be performed under photographic darkroom lights (“Brightlab Junior” safelight). In some cases, the ligands were briefly exposed to room light (5-10 min.) during the weighing procedure. For eliciting physiological responses from oocytes, the light stimulus was a 60 W tungsten lamp set at a distance of 30 cm from the oocyte. Drugs were applied either by superfusion, switching from a series of gravity fed perfusion lines, or by local perfusion from a 10 μl glass capillary tube fixed at a distance of 0.5 mm from the oocyte. Experiments were carried out at room temperature. All values are expressed as mean ± standard error of the mean.

SNORF36a [4] = molecular target: T1, SNORF36a; test: Inositol phosphate assay (phosphoinositide hydrolysis) in human SNORF36a-transfected Cos-7 cells; format: cell-based
Method: (§2) Human SNORF36a receptor-mediated activation of the inositol phosphate (IP) second messenger pathways was assessed by radiometric measurement of IP products.
(§3) Cells were plated at a density of 70,000 cells per well and allowed to incubate for 24 hours. The cells were then labeled with 0.5 μCi [^3H]myo-inositol overnight at 37° C., 5% CO2. Immediately before the assay, the medium was removed and replaced with 180 μL of Phosphate-Buffered Saline (PBS) containing 10 mM LiCl. The plates were then incubated for 20 min at 37° C., 5% CO2. Following the incubation, the cells were challenged with agonist (20 μl/well; 10× concentration) for 30 min at 37° C. and were simultaneously either exposed or not to a lamp light (50W) placed at approximately 30 cm distance from the cells. The challenge was terminated by the addition of 100 μL of 5% v/v trichloroacetic acid, followed by incubation at 4° C. for greater than 30 minutes. Total IPs were isolated from the lysate by ion exchange chromatography. Briefly, the lysed contents of the wells were transferred to a Multiscreen HV filter plate (Millipore) containing Dowex AGI-X8 (200-400 mesh, formate form). The filter plates were prepared adding 100 μL of Dowex AG1-X8 suspension (50% v/v, water: resin) to each well. […] 200 μL of scintillation cocktail was added to each well, and the radioactivity was determined by liquid scintillation counting.

[5] = system: vector-transfected Cos-7 cells; test: Inositol phosphate assay in empty vector-transfected Cos-7 cells; format: cell-based; conditions: vector-transfected Cos-7 cells exposed to lamp light
Method: as §2, §3

[6] = antagonist at 10 μM, hSNORF36a-transfected Cos-7 cells, n=2

EC50 (SNORF36a [1])	Compound	response to light [2]	response to light stimulus after pre-incubation (SNORF36a [3])	further results
152 nM	CC1=C(/C=C/C(C)=C\C=C\C(C)=C\C=O)C(C)(C)CCC1 [9-cis-retinal]			
477 nM	CC1=C(/C=C/C(C)=C/C=C/C(C)=C/C=O)C(C)(C)CCC1 [13-cis-retinal]	did not respond to light	rapidly desensitizing Cl^− currents	
263 nM	CC1=C(/C=C/C(C)=C/C=C/C(C)=C/C=O)C(C)(C)CCC1 [all-trans-retinal]	fails to respond to light; also recorded: did not respond to light	rapidly desensitizing Cl^− currents	3H-IP accumulation (SNORF36a [4]; SNORF36a-transfected Cos-7 cells exposed to lamp light, n=2): Concentration-dependent increase; 3H-IP levels (SNORF36a [4]; SNORF36a-transfected Cos-7 cells not exposed to light, n=1): did not change; 3H-IP accumulation [5]: not in vector-transfected cells

Second part, the compound before the results:

Compound	EC50 (SNORF36a [1])	response to light [2]	response to light stimulus after pre-incubation (SNORF36a [3])	further results
CC1=C(/C=C/C(C)=C/C=C/C(C)=C/C(=O)O)C(C)(C)CCC1 [ATRA, all-trans-retinoic acid]			rapidly desensitizing Cl^− currents	
CC(=O)/C=C/C1=C(C)CCCC1(C)C [β-ionone]				nature of the antagonism (SNORF36a [1]; 10 μM against all-trans-retinal and 9-cis-retinal, hSNORF36a-transfected Cos-7 cells): insurmountable; antagonism of 9-cis-retinal-induced Ca2+ mobilization (SNORF36a [1]; [6]): significantly antagonized; antagonism of all-trans-retinal-induced Ca2+ mobilization (SNORF36a [1]; [6]): significantly antagonized
